Patent publication US7332480B2, “Compositions for the regulation of cytokine activity” (Yeda Research and Development Co. Ltd., priority 1992, dated 2008)

Tests used:
[1] = tested on: experimental DTH reaction in mice; test: In vivo bioassay of inhibition of experimental DTH reactivity (oxazolone, ear swelling); settings: for DTH: Table XXIIIC, CD1 mice
Description: Groups of inbred BALB/c (Jackson Laboratories, Bar Harbor, Me.) or of outbred CD1 (Weizmann Institute Animal Breeding Center, Rehovot, Israel) mice are sensitized on the shaved abdominal skin with 100 μl of 2% oxazolone (OX) in acetone/olive oil (4/1, v/v) applied topically. DTH sensitivity is elicited 5 days later as follows: mice are challenged with 20 μl of 0.5% OX (10 μl administered topically to each side of the ear) in acetone/olive oil. A constant area of the ear is measured immediately before challenge and 24 and 48 h later with a Mitutoyo engineer's micrometer. The individual measuring ear swelling is blinded to the identity of the groups of mice. The increment (Δ) of ear swelling is expressed as the mean in units of 10^−2 mm or 10^−4 inch (+SE) depending on the micrometer that is used. Percent inhibition is calculated as follows: […]
Mice are treated with LMWH again Example 5.1, injected the day before primary sensitization to OX. On the fifth day after sensitization to OX, the 10 mice are challenged to induce a DTH reaction, as described above.
The positive control is the DTH reaction elicited in immunized mice in the absence of treatment with LMWH. The negative control is the background swelling produced by the antigen in naive (non-immunized) mice. […]
BALB/c mice (at least 5 mice per group) were sensitized on the shaved abdomen with 3% 4-ethoxymethylene-2-phenyl oxazolone (OX; BDH-Chemicals, GB) in acetone/olive oil applied topically. DTH sensitivity was elicited 5 days later as follows. Mice were challenged with 0.5% OX in acetone/olive oil. The ear was measured immediately before challenge and 24 h later with Mitutoyo engineer's micrometer (Japan). The individual measuring the swelling of the ear was blinded to the identity of the groups of mice. To interfere with DTH response, the low molecular weight immuno-regulatory fractions, diluted in PBS, were administrated subcutaneously into the back of the treated mice at the indicated time schedules and concentrations. Treated mice were inspected during and after (>2 months) the treatment and no major side-effects were observed clinically.
In particular, CD1 mice (available from the Weizmann Institute Animal Breeding Center, Rehovot, Israel), 4-12 mice per group were treated as described in Section 5.2 or 6.8.

IDDM of NOD mice = test: Insulin dependent diabetes mellitus (IDDM) of NOD mice; assay type: in vivo; settings: H-9392 30 ng, glucosamine 10,000 ng; all the control mice had died (FIG. 41A)
[2] = tested on: mortality after irradiation; test: Radioprotective effects in gamma-irradiated mice; assay type: in vivo, BALB/c mice; settings: 750 rads, three administrations; for activity in suppressing mortality after irradiation: 300 ng H-9392, 1 μg glucosamine
Description: Groups of female BALB/c mice, 8 weeks old, 5-10 mice per group, were injected subcutaneously with either saline (0.1 ml, control), H-9392 (30 ng/mouse), or glucosamine (10,000 ng/mouse) 1 day before irradiation, and weekly thereafter until termination of the experiment on day 30. All the mice were irradiated to a dose of 700 rads using a ^60Co gamma radiation source.
The mortality within the different groups of mice was then scored over a 30 day period. […] The group of mice which had been injected with glucosamine also fared better than the control group, showing a 20% mortality rate in the same period.
In a separate experiment, groups of BALB/c mice (5 mice to a group) were likewise exposed to 750 rads of gamma-rays, except that these groups of mice were treated with test substances (saline at 0.1 ml per mouse; H-9392 at 0.3, 3, 30 and 300 ng/mouse; and glucosamine at 1, 10 and 100 μg/mouse) on the day before irradiation, on the sixth day after irradiation, and once again on the thirteenth day after irradiation only. All treatment ceased after the third and last administration.

adjuvant arthritis = test: Adjuvant arthritis (AA) in rats; assay type: in vivo, Lewis rats; settings: for course of AA after treatment was ended: treatment from day 12, dexamethasone phosphate daily or weekly, disaccharide weekly; for severity of the AA score at 30 days post-induction: weekly s.c. from day 12, dexamethasone phosphate 100 μg or disaccharide 120 ng per rat (FIG. 38G)
[3] = tested on: secretion of active TNF-α by activated human CD4+ T cells; test: Bioassay of TNF-α activity using human CD4+ T cells derived from PBLs (human PBL bioassay); assay type: cell-based; settings: Table XXIII; conc range of 1 μg/ml-0.01 pg/ml; inconsistent = same result not obtained for all three bioassays
Description: Non adherent cells were eluted and washed.
Nophar, Y. et al. J. Immunol. (1988) 140 (10):3456-3460.

skin graft rejection = test: Skin allograft rejection in mice; assay type: in vivo, BALB/c mice; settings: 300 ng/mouse s.c. one day before grafting and weekly thereafter
Description: The effect of H-9392 was also tested in skin graft rejection experiments in mice. In particular, skin grafts from C57BL/6 donor mice (H-2^b) were applied to recipient BALB/c mice (H-2^d) according to the method of Baharav, E. et al. J. Immunol. Methods (1986) 90:143-144. The number of days to rejection was measured by the sloughing of the graft. The number of days to rejection was determined for a control group (injected with saline only, 0.1 ml), and test groups that received 3 ng or 300 ng of H-9392 by subcutaneous injection one day before grafting and weekly thereafter. The results, which are graphically represented in FIGS. 40 and 40A, reveal that the 3 ng/mouse dose delayed the level of skin graft rejection at 50% by 5 days!

[4] = tested on: experimental allergic asthma; test: Experimental allergic bronchial asthma in rats; assay type: in vivo, Brown Norway rats; settings: 30 ng s.c. on day 30, challenge on day 35; saline animals Grade 3 or 4
Description: Experimental allergic bronchial asthma is an immediate type hypersensitivity reaction in rats which have been immunized and then rechallenged by inhalation of the priming antigen in a aerosolized solution. (Edelman, et al., Am. Rev. Resp. Dis. (1988) 137:1033-37). The etiology and pathophysiology of this experimental disease closely parallel the naturally occurring human counterpart. […] V.), on day zero. Subsequent challenges consisted of a 5 minute period of inhalation of OVA (1 mg/ml solution) aerosolized in a Devilbiss Nebulizer operated at an airflow of 6 L/min. Respiratory Distress (RD) responses were scored as Grade 0, no signs of distress; Grade 1, tachypnea; Grade 2, moderate labored breathing; Grade 3 severe labored breathing with mouth open; Grade 4, loss of consciousness and muscular tone. Sixteen days following primary immunization all animals were exposed to an initial aerosolized challenge to establish the positive control. The animals were coded so that the observer was ignorant of the subject animal's history. […] On day thirty, the animals were divided into 2 groups and given either saline (control Group A) or 30 ng of substance H-9392, s.c., (Group B) and challenged on day 35 as above.

[5] = tested on: LPS-induced inflammation of the cornea; test: LPS-induced inflammation of the rat cornea; assay type: in vivo, Lewis rats
Description: LPS-induced inflammation of the cornea is TNF dependent, as shown by the work of Vanderhagen, C. and co-workers in the Netherlands, “Kinetics of Intraocular TNF and IL-6 in Endotoxin-Induced Uveitis in the Rat,” submitted for publication. Using a 30-gauge needle, LPS (5 ng) was injected into the cornea of Lewis rats. After one day, separate groups of rats, 2 to a group (or 4 eyes to a group) were then injected subcutaneously with phosphate-buffered saline (0.05 ml) or H-1020 (at a dose of either 50 ng/rat or 200 ng/rat). The effects, if any, were scored as follows:
in which the sum of the points is used as the total score.

## N[C@@H](C=O)[C@@H](O)[C@H](O)[C@H](O)CO [GlcN, 2-amino-2-deoxy-D-glucose, reference compound]
[1]; 0.000012 μg/gm s.c., control 19.7 ± 1.2
  DTH: 5 ± 0.7 10^−2 mm
[1]; 0.4 μg/gm s.c., control 19.7 ± 1.2
  DTH: 2.3 ± 0.9 10^−2 mm
IDDM of NOD mice
  mice died by age 5 months: about half
[2]
  activity in suppressing mortality after irradiation: moderate activity

## C[C@@H]1C[C@H]2[C@@H]3CCC4=CC(=O)C=C[C@]4(C)[C@@]3(F)[C@@H](O)C[C@]2(C)[C@@]1(O)C(=O)COP(=O)(O)O [dexamethasone phosphate, reference compound]
Adjuvant arthritis
  course of AA after treatment was ended: suffered a relapse
  severity of the AA score at 30 days post-induction: only a moderate reduction in the severity of the AA score

## O=C(O)C1=C[C@H](O)[C@@H](OS(=O)(=O)O)[C@H](O[C@H]2[C@H](O)[C@@H](NS(=O)(=O)O)C(O)O[C@@H]2COS(=O)(=O)O)O1 (stereo partly drawn) [H-9267, 2-O-sulfate-4-deoxy-4-en-iduronic acid-(α-1,4)-2-deoxy-2-N-sulfate-6-O-sulfateglucosamine]
[1]; Table XXIIIA, inhibition of DTH, s.c.
  “R” value: 1.60 × 10^5 % × (μg/gm)^−1
[3]
  Bioassay of TNF Activity: Inconsistent

## N[C@H]1C(O)O[C@H](CO)[C@H](O)[C@@H]1O (stereo partly drawn) [GalN, D-Galactosamine, reference compound]
[1]; 0.00004 μg/gm s.c., control 18.9 ± 0.7
  DTH: 8.9 ± 0.6 10^−2 mm
[1]; 0.12 μg/gm s.c., control 18.9 ± 0.7
  DTH: 6.5 ± 0.7 10^−2 mm
Adjuvant arthritis; different dosages, s.c. weekly (FIG. 38C)
  effect on AA: inhibitory effects but to a much lesser degree

## O=C(O)C1=C[C@H](O)[C@@H](OS(=O)(=O)O)[C@H](O[C@H]2[C@H](O)[C@@H](NS(=O)(=O)O)C(O)O[C@@H]2CO)O1 (stereo partly drawn) [H-9392, 2-O-Sulfate-4-deoxy-4-en-iduronic acid-(α-1,4)-2-deoxy-2-N-sulfateglucosamine]
Adjuvant arthritis
  course of AA after treatment was ended: continued to exhibit improved AA scores
  severity of the AA score at 30 days post-induction: almost complete suppression
Adjuvant arthritis; weekly or daily, beginning at day 0 or at day 12 (FIGS. 38D, 38E)
  effect on severity of AA: positive suppression of the severity of AA in all cases
IDDM of NOD mice
  mice died by age 5 months: none
[3]
  Bioassay of TNF Activity: Inconsistent
[2]; 30 ng/mouse, 5 mice to a group
  mice died by the thirtieth day after irradiation: one
[2]
  activity in suppressing mortality after irradiation: moderate activity
Skin graft rejection
  difference at 50% rejection relative to control: failed to produce a significant difference
[4]
  respiratory distress after secondary challenge: mere tachypnea

## O=C(O)C1=C[C@H](O)[C@@H](O)[C@H](O[C@H]2[C@H](O)[C@@H](NS(=O)(=O)O)C(O)O[C@@H]2COS(=O)(=O)O)O1 (stereo partly drawn) [H-1020, 4-deoxy-4-en-iduronic acid-(α-1,4)-2-deoxy-2-N-sulfate-6-O-sulfateglucosamine]
[5]; 50 ng/rat s.c. (FIG. 39)
  effect on local LPS-induced inflammation relative to control: effective to suppress
[5]; 200 ng/rat s.c. (FIG. 39)
  effect on local LPS-induced inflammation relative to control: failed to provide a significant effect
